Reference: patent US20250325535A1, “IDENTIFICATION OF NOVEL SMALL-MOLECULE INHIBITORS OF SARS-CoV-2 BY CHEMICAL GENETICS” (The University of Hong Kong, priority 2024, published 2025)
pIC50: −log10 of the molar value.

Legend:
[1] = in vitro; format: cell-based; settings: African green monkey
Method: (§1) FIG. 9. MTT cytotoxicity assays of SMART™ finalized hits compounds on VeroE6 cells. VeroE6 cells are treated with compounds of interest diluted from 100 μM to 0.78 μM in a 2-fold interval and incubate for 72 hours.
(§2) Briefly, cells are seeded onto a 96-well plate at a density of 20,000 cells per well one day before treatment. On the following day, compounds of interest are added to the cells in gradient concentrations and incubated at 37° C. with 5% CO2 for either 48 or 96 hours. After medium removal, 100 μL of 1×MTT solution in plain DMEM is added to the cells and incubated at 37° C. with 5% CO2 for 3-4 hours. Then, MTT lysis buffer (10% SDS/10 mM HCl) is added to the cells and incubated at room temperature for 3-4 hours. Cell viability is measured in absorbance (OD595) using a plate reader (Glomax, Promega).

[2] = test system: VeroE6 cells; experiment: in vitro; format: cell-based; settings: African green monkey, 72 h, 100 μM
Method: as §1, §2

[3] = test system: MERS-CoV; format: cell-based
[4] = test system: HCoV-229E; format: cell-based
[5] = test system: SARS-CoV; format: cell-based
[6] = test system: recombinant WT SARS-CoV-2; experiment: microbe, parasite or virus in culture; format: cell-based; settings: for pIC50: Severe acute respiratory syndrome coronavirus 2, recombinant WT virus, read-out: IC50 (plaque formation assay)
[7] = test system: Caco-2 cells; format: in vitro ADME
Method: Caco-2 cells are seeded onto 0.4 μm pore polycarbonate membranes (PC) in 96-well Corning Insert plates at a density of 3.5×10^4 cells/cm2.HBSS with 10.0 mM HEPES at pH 7.40±0.05 as the transport buffer. The compound is subjected to bidirectional testing in triplicate at 2.00 μM. The plate is incubated in a CO2 incubator with 5% CO2 at 37.0° C. and saturated humidity for two hours without shaking. All samples are centrifuged at 3220 g for 10 minutes after being combined with acetonitrile containing internal standard. Using the peak area ratio of the analyte/internal standard, LC-MS/MS techniques are used to quantify the concentrations of the compound in the beginning solution, donor solution, and recipient solution. Following transportation, lucifer yellow rejection assay is applied to determine the Caco-2 cell monolayer integrity.
For data analysis, Permeability (Papp), efflux ratio and Percent recovery are calculated using the following equations: […]

[8] = format: in vitro ADME, CD-1 mouse or human; settings: microsomes
Method: Mouse and Human Liver Microsomes are respectively provided by RILD and coming. They are collected from CD-1 mouse or human and prepared in 100 mM potassium phosphate buffer. […] Aliquots are sampled at 0, 5, 15, 30, 45, and 60 min for LC-MS/MS analysis.

[9] = test system: Wild Type SARS-CoV-2; experiment: Golden Syrian hamster experiment; format: in vivo
[10] = test system: 44 selected host targets including 24 GPCRs, 8 ion channels, 7 enzymes, 3 monoamine transporters, and 2 nuclear hormone receptors; settings: 10 μM
[11] = Balb/c mouse, single intraperitoneal 5 mg/kg

Compound | CC50 at 72 h [1] [nM] | cell viability in MTT assay [2] | reduction in normalized expression of N gene in cell lysate [3] [log10] | viral RNA reduction in supernatant [4] | reduction of SARS-CoV viral load [5] [log 10] | pIC50 [6] | permeability [7] | metabolic stability [8] | viral yield reduction in lung and nasal turbinate vs control group ([9]; 1 mg/kg IP at 12-hour intervals, day 3) [log 10] | off-target effects on host proteins [10] | Cmax [11] [µM] | protection (viral yield reduction) in animal lungs ([9]; Nirmatrelvir 200 mg/kg IP, Pelitinib oral 10 mg/kg, 12-hour intervals) [log 10] | inhibition of virus replication ([6]; WT virus) | protection (viral yield reduction) in animal lungs ([9]; in vivo)
Cc1ccc(C2C3=C(CC(c4ccccc4)CC3=O)NC3=C2C(=O)c2ccccc23)cc1 (stereo not shown) [Compound 172, 10-(4-methylphenyl)-7-phenyl-6,7,8,10-tetrahydro-5H-indeno[1,2-b]quinoline-9,11-dione] | > 100000 | over 90% | > 5 | more than 3 log 10 | 1 | 5.41 | moderate | moderate | 1 | no significant off-target effects | 6.89 |  |  | 
CC(C)(C)[C@H](NC(=O)C(F)(F)F)C(=O)N1C[C@H]2[C@@H]([C@H]1C(=O)N[C@H](C#N)C[C@@H]1CCNC1=O)C2(C)C [Nirmatrelvir] |  |  |  |  |  | 7.74 |  |  |  |  |  | > 4 |  | 
CCOc1cc2ncc(C#N)c(Nc3ccc(F)c(Cl)c3)c2cc1NC(=O)/C=C/CN(C)C [Pelitinib] |  |  |  |  |  | 5.79 |  |  |  |  |  |  | dose-dependent inhibition of WT virus replication | marginal
